Reference: patent publication US20090305993A1, “METHODS AND COMPOSITION FOR THE TREATMENT OF GASTROINTESTINAL DISORDERS” (IRONWOOD PHARMACEUTICALS, INC., priority 2006, published 2009)
Where a SMILES comes first, the peptide text is derived from it. Bridges are numbered along the chain shown (N, C = ends).

Assays:
[1] = oral bioavailability in mice, radioimmunoassay (RIA); details: female, CD-1, mouse, in vivo
Protocol: Oral bioavailability was also determined using a radioimmunoassay (RIA) detection method. Female CD-1 mice (Charles River, Wilmington, Mass.) weighing approximately 25 g (7-8 weeks old) or female CD rats (Charles River, Wilmington, Mass.) weighing approximately 153 g were included in this study. Monoclonal antibody, 20C1 (Brandwein et al. 1985 Infect Immun. 47:242-246), which recognizes SEQ ID NO:7 and 1251 labeled—SEQ ID NO:7, a labeled tracer, were used in these experiments. The labeled tracer was purified by HPLC using a Waters C-18u Bondapak® column (25 cm) previously equilibrated with 10 mM ammonium acetate pH 5.8. […] Blood was drawn from all dosed animals by retro-orbital eye bleeding at specific intervals and test compound levels were analyzed by radioimmunoassay (RIA). […] Radioactivity was measured in a LS 6500 scintillation counter (Beckman-Coulter). The binding efficiency is defined as the percent radioactivity in the B0 sample compared to the input counts. The percent bound in each sample was calculated by the equation: […]
A standard curve was prepared by plotting % B/B0 as a function of the log SEQ ID NO:3 concentration. […] The area under the curve from T=0 to 4 hours (AUC0-4h) was calculated by the software for both p.o. and i.v. dosed animals. […] Oral Bioavailability (F) is calculated using the equation: […]

healthy subjects = experiment: seven-day oral dosing study in humans, bowel habits; format: in vivo, human
Protocol: Seven daily doses of 30, 100, 300, or 1000 μg of chemically synthesized SEQ ID NO:3 were given to 48 healthy subjects. SEQ ID NO:3 or placebo (vehicle) was administered orally in 5.0 mL 50 mM phosphate buffer (pH 6.0) plus 3×20 mL water rinses and 175 mL water after at least a 10-hour fast. In each dosing group, 8 subjects were randomized to receive SEQ ID NO:3 and 4 subjects were randomized to receive placebo. […] The Mean Ease of Passage (FIG. 15d) of stools was tested for subjects treated with 30-1000 μg SEQ ID NO:3.

chymotrypsin = chymotrypsin (Bos taurus, UniProt P00766); details: 37° C., up to 24 h
Protocol: (§1) The stability of SEQ ID NO:3 in the presence of several mammalian digestive enzymes was determined. SEQ ID NO:3 was exposed to a variety of in vitro conditions including digestive enzymes and low ph environments designed to simulate gastric fluid. SEQ ID NO:3 was incubated with chymotrypsin, trypsin, pepsin, aminopeptidase, carboxypeptidase A, and simulated gastric fluid (sgf) at ph 1.0. Samples were collected at 0, 3, and 24 h for all conditions except pepsin digestion and the SGF. For the latter two conditions, samples were obtained at 0, 1, and 3 h. Negative control samples were prepared for initial and final time points. A separate, positive activity control was run in parallel to SEQ ID NO:3. All samples were analyzed by LC/MS
500 μl samples of 0.01 mg/mL SEQ ID NO:3 and guanylin (Sigma-Aldrich, G116; positive control) were prepared in the chymotrypsin reaction buffer (100 mM Tris-HCl, 10 mM CaCl2, pH 7.5) in 2 mL eppendorf tubes. Zero and 24 h control samples were prepared by adding 5 μL of a 10 mM chymostatin (Sigma-Alrich, C7268; a chymotrypsin inhibitor) stock for a final concentration of 100 μM. All samples were incubated at 37° C. for 5 min. […] These standards were used to generate a standard curve for quantification of samples. […]

aminopeptidase = aminopeptidase (Sus scrofa, UniProt P15145); details: 37° C., up to 24 h
Chain of aminopeptidase (P15145 whole entry): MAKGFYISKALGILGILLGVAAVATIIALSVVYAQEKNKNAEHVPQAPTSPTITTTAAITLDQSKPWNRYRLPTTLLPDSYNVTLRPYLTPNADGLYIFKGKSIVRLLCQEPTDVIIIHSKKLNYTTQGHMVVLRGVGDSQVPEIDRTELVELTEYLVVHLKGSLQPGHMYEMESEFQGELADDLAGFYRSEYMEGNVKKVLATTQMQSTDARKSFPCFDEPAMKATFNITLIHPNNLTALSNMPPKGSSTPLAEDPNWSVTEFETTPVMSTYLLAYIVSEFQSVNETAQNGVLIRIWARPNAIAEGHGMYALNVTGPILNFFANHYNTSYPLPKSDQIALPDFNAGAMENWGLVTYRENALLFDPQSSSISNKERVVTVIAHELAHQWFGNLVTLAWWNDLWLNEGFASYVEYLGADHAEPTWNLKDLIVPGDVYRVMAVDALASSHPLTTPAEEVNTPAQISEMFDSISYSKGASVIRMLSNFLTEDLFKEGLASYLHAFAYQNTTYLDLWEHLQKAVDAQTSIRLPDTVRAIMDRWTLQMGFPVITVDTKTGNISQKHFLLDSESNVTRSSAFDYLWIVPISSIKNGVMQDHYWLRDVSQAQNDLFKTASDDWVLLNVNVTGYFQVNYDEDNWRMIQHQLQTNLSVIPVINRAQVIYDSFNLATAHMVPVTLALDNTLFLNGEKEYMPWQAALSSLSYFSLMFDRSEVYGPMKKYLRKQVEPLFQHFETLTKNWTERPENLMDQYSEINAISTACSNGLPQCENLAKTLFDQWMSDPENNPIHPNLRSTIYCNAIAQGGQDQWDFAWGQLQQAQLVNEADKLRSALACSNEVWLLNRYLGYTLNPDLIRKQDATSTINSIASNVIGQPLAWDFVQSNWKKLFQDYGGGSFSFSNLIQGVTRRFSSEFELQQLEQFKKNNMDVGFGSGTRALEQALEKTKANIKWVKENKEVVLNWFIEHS
Protocol: as §1
500 μL samples of 0.01 mg/mL SEQ ID NO:3 and chemically synthesized SEQ ID NO:4 (wild type ST; positive control) were prepared in the aminopeptidase reaction buffer (5 mM Tris-HCl, 5 mM MgCl2, pH 7.5) in 2 mL eppendorf tubes. 5 μL of a 5 mg/mL Bestatin hydrochloride (BioChemika, 08170; an aminopeptidase inhibitor) stock was added to each control sample (0 and 24 h), for a final concentration of 0.05 mg/mL. All control and test samples (0, 3, and 24 h) were incubated at 37° C. for 5 min. […] These standards were used to generate a standard curve for quantification of samples. […]

[2] = tested on: healthy males and postmenopausal females; experiment: single oral dose study in humans, bowel habits (BSFS); format: in vivo, human
Protocol: Single doses of 30, 100, 300, 1000 or 3000 μg of chemically synthesized SEQ ID NO:3 were given to 30 healthy males and postmenopausal females. At each dose level (100 μg was done twice) SEQ ID NO:3 or placebo (vehicle) was administered orally in 5.0 mL 50 mM phosphate buffer (pH 6.0) plus 3×20 mL water rinses and 175 mL water after at least a 10-hour fast. In each dosing group, subjects were randomized to receive either placebo (1 subject) or SEQ ID NO:3 (3-4 subjects). Bowel habits (including Bristol Stool Form Scale score (BSFS; FIG. 14a), stool frequency, and stool weight) were evaluated for each collected bowel movement 48 hours prior to dose and up to approximately 48 hours postdose.

[3] = absorbability study in mice, ELISA detection; format: in vivo; details: CD1, mouse, serum, IV and oral, FIG. 10a, read-out: bioavailable
Protocol: To study the pharmacokinetics of SEQ ID NO:3, absorbability studies in mice were performed by administering SEQ ID NO:3 intravaneously via tail vein injection or orally by gavage to 8-week-old CD1 mice. Serum was collected from the animals at various time points and tested for the presence of SEQ ID NO:3 using a competitive enzyme-linked immunoabsorbent assay (Oxoid, ST EIA kit, Cat#TD0700). The assay utilized monoclonal antibodies against ST peptide (antibodies are provided in the Oxoid kit) and synthetically manufactured SEQ ID NO:3.

Compound: C[C@@H]1NC(=O)[C@@H]2CCCN2C(=O)[C@H](CC(N)=O)NC(=O)[C@@H]2CSSC[C@H](N)C(=O)N[C@H]3CSSC[C@H](NC1=O)C(=O)N[C@@H]([C@@H](C)O)C(=O)NCC(=O)N[C@H](C(=O)N[C@@H](Cc1ccc(O)cc1)C(=O)O)CSSC[C@H](NC(=O)[C@H](Cc1ccc(O)cc1)NC(=O)[C@H](CCC(=O)O)NC3=O)C(=O)N2 [SEQ ID NO:3] (H-CCEYCCNPACTGCY-OH; disulfide 1-6, 2-10, 5-13; N-terminus and C-terminus assumed)
- AUC ([1]; 8 mg/kg oral, read-out: AUCp.o.,(0-4h)): ≤ 11.5 ng·h/mL
- bioavailability ([1]; oral, 8 mg/kg, over 4 hours, read-out: bioavailability (F)): ≤ 0.04%
- Mean Ease of Passage of stools, baseline versus treatment, placebo versus SEQ ID NO:3 (healthy subjects; 1000 μg dose group, FIG. 15e): greatest difference
- Mean Stool Weight (healthy subjects; seven daily oral doses 30-1000 μg, higher doses, FIG. 15C): increase
- Mean Stool Frequency (stools per week) (healthy subjects; seven daily oral doses 30-1000 μg, higher doses, FIG. 15b): increase
- Cleavage of SEQ ID NO: 3 by proteolytic substance (chymotrypsin): not detectable
- Cleavage of SEQ ID NO: 3 by proteolytic substance (aminopeptidase): not detectable
- percent of subjects with at least a 2-point increase in BSFS consistency score ([2]; 1000 μg dose group, mean pre-dose compared to peak 48 hours post-dose, FIG. 14c): highest percent of subjects
- BSFS post-dose scores versus dose ([2]; single oral dose 30-3000 μg): Higher BSFS post-dose scores correlated with a higher dose
- maximum BSFS score ([2]; single oral dose 30-3000 μg, FIG. 14b): increase
- bioavailability [3]: < 2.2%
